Assay results from patent US10959966B2, “Compositions and methods for modulating HEXM1 expression” (CASE WESTERN RESERVE UNIVERSITY, priority 2014, dated 2021).

Assays:
Assay type in all cases: cell-based
[1] = test system: HEXIM1 targets in MCF7 cells; assay: Western blot of HEXIM1 targets in MCF7 cells; details: 5 mM HMBA or 50 uM 4a1, 18 h, relative to GAPDH
Method: FIG. 10 illustrates a Western blot of MCF7 cells treated with vehicle, 5 mM HMBA, or 50 uM 4a1 for 18 h, and processes for analyses of HEXIM1 targets relative to GAPDH.
(§1) Cell lysates were analyzed by western blot as previously described. Anti-HEXIM1 was generated in the Montano laboratory. Primary antibodies against p21 (C-19; cat# sc-397), cyclin D1 (HD11; cat# sc-246) and myc (9E10; cat# sc-40) were obtained from Santa Cruz Biotechnology. Anti-GAPDH was obtained from Millipore. Anti-HIF-1α was obtained from Oxy-cell, Bioresearch).
To assess the clinical potential of HMBA and 4a1 we need to determine to what extent the targets of HMBA and 4a1 overlap with that of HEXIM1. We focused on direct targets of HEXIM1 that we have identified.

[2] = test system: p21 expression in breast cancer MCF7 cells; assay: p21 expression by western blot, MCF7 cells; details: 5 mM HMBA or 50 μM 4a1, 18 hours
Method: FIGS. 7(A-B) illustrate Western blots showing (A) MCF7 (control siRNA or HEXIM1 siRNA) and (B) LNCaP (control shRNA or HEXIM1 shRNA) cells treated with vehicle (DMSO), 5 mM HMBA, or 50 μM 4a1 for 18 hours.
as §1
HMBA was investigated in a Phase II clinical trial due to its potent anti-cancer and cell differentiation activities. Moreover, the roles of HMBA, and potentially 4a1, as differentiating factors are advantageous for their therapeutic use when compared to cytotoxic agents. […] We also examined the ability of 4a1 to induce differentiation and the relative role of HEXIM1.

[3] = test system: HEXIM1 expression in breast cancer MDA-MB-231 cells; assay: HEXIM1 expression in MDA-MB-231 cells
Method: FIGS. 5(A-C) illustrate (A) the structure of HMBA analog, 4a1, (B) a graph showing HEXIM1 protein expression of breast cancer MCF7 cells treated with vehicle, HMBA, or 4a1 for 18 h, and (C) Western blot analyses of HEXIM1 targets relative to the loading control (GAPDH) of the treated cells.
MCF7, MDA-MB-231, and LNCaP cells were obtained from the American Tissue Culture Collection, and were maintained as previously described. Construction of expression vectors for control miRNA or HEXIM1 miRNAs were described previously. MCF7 or LNCaP cells were transfected with expression vectors containing either the HEXIM1 miRNA insert or a control miRNA insert as previously described. Following blasticidin selection, cells expressing the highest level of GFP were flow-sorted and expanded. MDA-MB-231 cells were transfected with control or expression vector for Flag-tagged HEXIM1 as previously described. The tamoxifen resistant cells line (TOTR) was generated by serial passage of parental MCF7 cells in growth media supplemented with 1 uM trans-hydroxytamoxifen.
as §1, with “Anti-HIF-1α was obtained from Oxy-cell, Bioresearch).” left out

[4] = test system: HEXIM1 expression in LNCaP prostate cancer cells; assay: HEXIM1 expression by western blot in LNCaP cells treated with HMBA analogs
Method: (§2) FIGS. 2(A-B) illustrate Western blots and a graph showing the effect of HMBA analogs on HEXIM1 expression. LNCaP cells were treated with vehicle, HMBA (5 mM) and its analogs at 500 μM for 24 h. Level of HEXIM1 (upper panel) and β-actin (lower panel) was analyzed by Western blot of cell extracts with HEXIM1 antibody and β-actin antibody respectively. The bands of HEXIM1 were quantified using ImageJ (NIH) and normalized to β-actin. The results are the representative of three independent experiments.
as §2, with “3(A-B)” for “2(A-B)”, “lower concentration” for “the effect”, “identified” for “its”, “100” for “500”
FIGS. 4(A-B) illustrate Western blots and a graph showing dose-dependent study of compound 4a1 and HMBA on HEXIM1 expression. Level of HEXIM1 (upper panel) and β-actin (lower panel) was analyzed by Western blot of cell extracts with HEXIM1 antibody and β-actin antibody respectively.
HMBA analogs described herein can be synthesized based on the HMBA scaffold and then selected for their ability to induce HEXIM1 expression in an in vitro cell assay. For example, the synthesized HMBA analogs can be administered to cells, such as LNCaP prostate cancer cells, and the level of HEXIM1 in such cells can be measured using western blot analyses. The level of HEXIM1 expression of cells that are treated with a potential HMBA analog can be compared to control cells treated without the HMBA analog or with HMBA. Control cells (untreated or treated with HMBA) can be assigned a relative HEXIM1 expression value. Induction or promotion of HEXIM1 expression is achieved when the HEXIM1 expression relative to the control is increased at least about 1%, 5%, 10%, 15%, 20%, 30%, 50%, 75%, 100%, 200%, or more.
The synthesis of the symmetrical and unsymmetrical derivatives is described in Scheme 1 and 2, respectively. For the symmetrical analogs, moieties A and C were kept identical. Besides the acetyl group of HMBA, methanesulfonyl group, propionyl group or butyryl group were introduced. In addition, a bulky benzoyl group was introduced. The active proton in the amide moiety was replaced with methyl group to generate a series of analogs with lower solubility. For the moiety B, various linkers such as 1,3-propylene, […] 1,4-cyclohexylene, 1,4-phenylene-bis(methylene), 1,4-cyclohexylene-bis(methylene) were tested for optimization. For the unsymmetrical analogs, the A and B moieties were kept the same as HMBA while the C moiety was modified with aryl or alkyl amide. A total of 32 compounds were synthesized, and these compounds were examined for their potency to induce HEXIM1 in LNCaP prostate cancer cells. HMBA (5 mM) was used as a positive control.
Therefore, these three compounds were screened at lower concentrations.

**Q.** How did the “Expression of proteins directly regulated by HEXIM1” value [1] turn out when `COc1ccc(CC(=O)NCCCCCCNC(C)=O)cc1` [Compound 4a1] was run?
**A.** regulated expression of proteins

**Q.** And the p21 expression [2]?
**A.** induced p21 expression

**Q.** What about the “Potency of HEXIM1 induction compared to HMBA” value [3] of the same compound?
**A.** increased potency

**Q.** What about the “HEXIM1 expression compared to the vehicle treatment (cutoff 2.5 fold)” value ([4]; LNCaP cells, analogs at 500 μM, 24 h, western blot normalized to β-actin) of the same compound?
**A.** did not reach the cutoff

**Q.** What about the “Dose-dependent study on HEXIM1 expression” value ([4]; western blot, FIG. 4) of the same compound?
**A.** dose-dependently induced HEXIM1 expression
